{"source": "patent US20140193436A1", "about": "“EXTRACELLULAR TARGETED DRUG CONJUGATES” (priority 2011, published 2014)", "key": {"[1]": {"test_system": "HT-29 human colon cancer xenograft", "assay": "HT-29 human colon cancer xenograft model", "format": "in vivo, Hsd:Athymic Nude-Foxn1nu mice", "settings": "15 mg/kg qd×5 (positive control); compared to vehicle", "procedure": "Briefly, to establish a human colorectal adenocarcinoma disease model, tumors from HT-29 xenograft bearing mice were minced and 8 mm^3 fragments were transplanted s.c. by trocar needle into the left flank of Hsd:Athymic Nude-Foxn1^nu mice (Harlan, Indianapolis, Ind.). Therapy with EDC2.2 was then initiated when the tumor volume in groups of 7 animals averaged ˜100 mm^3. Treatment using vehicle control and either 1 or 5 mg/kg EDC2.2 was administered i.v. using the schedule of one injection every 3 days with 4 total injected doses (q3d×4). 15 mg/kg paclitaxel dosed at qd×5 served as a positive control treatment group. Tumor volumes were measured for each group using calibrated vernier calipers and plotted against first day of tumor implant for 69 days post-implant and 41 days post-initial dose. […] Therefore, EDCs that employ targeting moieties to CD147 conjugated to agents that act on the Na,K-ATPase should be generally useful in treating colon cancers."}, "H460 LCLC cells": {"test_system": "H460 LCLC cells", "assay": "In vitro cytotoxicity assessment (CellTiter-Glo cell viability), H460", "format": "cell-based, human", "description": "(§1) Cells and culture conditions: Cell lines H460, HT29, A549, PANC-1, MB231, FaDu, H69 and H929 were obtained from the American Type Culture Collection (ATCC), Manassas, Va. The malignant melanoma cell line LOX IMVI was obtained from the DCTD Tumor Repository, National Cancer Institute, Frederick, Md., The cell lines were maintained in the recommended media formulations and subcultured every 3 to 4 days. To activate expression of certain targets to which the drug moiety bind and/or to form Na,K-ATPase complexes with certain proteins, cells can be cultured in recommended media plus additives such as phorbol esters, various growth factors and cytokines such as VEGF, fibroblast growth factors, human growth factors, interleukins, and tumor necrosis factors. In addition, cells can be cocultured with other cells like human fibroblasts. Additionally, microtiter plates can be coated with various proteins like fibrinogen.\n(§2) Cells were incubated in the presence of test compound for 72 hr prior to cell viability testing."}, "HT29 Colon cells": {"test_system": "HT29 Colon cells", "assay": "In vitro cytotoxicity assessment (CellTiter-Glo cell viability), HT29", "format": "cell-based, human", "description": "as §1, §2"}, "A549 NSCLC cells": {"test_system": "A549 NSCLC cells", "assay": "In vitro cytotoxicity assessment (CellTiter-Glo cell viability), A549", "format": "cell-based, human", "description": "as §1, §2"}, "PANC1 Pancreas cells": {"test_system": "PANC1 Pancreas cells", "assay": "In vitro cytotoxicity assessment (CellTiter-Glo cell viability), PANC1", "format": "cell-based, human", "description": "as §1, §2"}, "MB231 Breast cells": {"test_system": "MB231 Breast cells", "assay": "In vitro cytotoxicity assessment (CellTiter-Glo cell viability), MB231", "format": "cell-based, human", "description": "as §1, §2"}, "FaDu Head/neck cells": {"test_system": "FaDu Head/neck cells", "assay": "In vitro cytotoxicity assessment (CellTiter-Glo cell viability), FaDu", "format": "cell-based, human", "description": "as §1, §2"}, "H69 SCLC cells": {"test_system": "H69 SCLC cells", "assay": "In vitro cytotoxicity assessment (CellTiter-Glo cell viability), H69", "format": "cell-based, human", "description": "as §1, §2"}, "[2]": {"test_system": "LOX Melanoma cells (LOX IMVI)", "assay": "In vitro cytotoxicity assessment (CellTiter-Glo cell viability), LOX", "format": "cell-based, human", "description": "as §1, §2"}, "H929 Myeloma cells": {"test_system": "H929 Myeloma cells", "assay": "In vitro cytotoxicity assessment (CellTiter-Glo cell viability), H929", "format": "cell-based, human", "description": "as §1, §2"}}, "note": "Where two headings read alike, the source gives them in different places.", "data": [{"smiles": "CC(=O)O[C@H]1C(=O)[C@@]2(C)[C@H]([C@H](OC(=O)c3ccccc3)[C@]3(O)C[C@H](OC(=O)[C@H](O)[C@@H](NC(=O)c4ccccc4)c4ccccc4)C(C)=C1C3(C)C)[C@]1(OC(C)=O)CO[C@@H]1C[C@@H]2O", "note": "[Paclitaxel, paclitaxel]", "values": [{"measurement": "growth inhibition of the tumor", "setting": "[1]", "result": 85, "unit": "%"}]}, {"smiles": "C[C@]12CC[C@H](OC3OC[C@H](N)[C@@H](O)[C@@H]3O)C=C1CCC1C2CC[C@]2(C)[C@@H](c3ccc(=O)oc3)CC[C@]12O", "note": "(stereo partly shown) [CEN09-106]", "values": [{"measurement": "EC50", "setting": "H460 LCLC cells; H460 LCLC, 72 hr with test compound, read-out: EC50", "result": 1.4, "unit": "nM"}, {"measurement": "EC50", "setting": "HT29 Colon cells; HT29 Colon, 72 hr with test compound, read-out: EC50", "result": 2.9, "unit": "nM"}, {"measurement": "EC50", "setting": "A549 NSCLC cells; A549 NSCLC, 72 hr with test compound, read-out: EC50", "result": 0.66, "unit": "nM"}, {"measurement": "EC50", "setting": "PANC1 Pancreas cells; PANC1 Pancreas, 72 hr with test compound, read-out: EC50", "result": 1.1, "unit": "nM"}, {"measurement": "EC50", "setting": "MB231 Breast cells; MB231 Breast, 72 hr with test compound, read-out: EC50", "result": 3.3, "unit": "nM"}, {"measurement": "EC50", "setting": "FaDu Head/neck cells; FaDu Head/neck, 72 hr with test compound, read-out: EC50", "result": 3.1, "unit": "nM"}, {"measurement": "EC50", "setting": "H69 SCLC cells; H69 SCLC, 72 hr with test compound, read-out: EC50", "result": 1, "unit": "nM"}, {"measurement": "EC50", "setting": "[2]; LOX Melanoma, 72 hr with test compound, read-out: EC50", "result": 2.5, "unit": "nM"}, {"measurement": "EC50", "setting": "H929 Myeloma cells; H929 Myeloma, 72 hr with test compound, read-out: EC50", "result": 3.1, "unit": "nM"}]}, {"smiles": "C[C@]12CC[C@H](O[C@H]3OC[C@H](NC(=O)CCOCCOCCOCCOCCOCCOCCOCCOCCOCCOCCOCCOCCOCCOCCOCCOCCOCCOCCOCCOCCOCCOCCOCCOCCNC(=O)CCN4C(=O)C=CC4=O)[C@H](O)C3O)C=C1CCC1C2CC[C@]2(C)[C@@H](c3ccc(=O)oc3)CC[C@]12O", "note": "(stereo partly shown) [CEN010-105]", "values": [{"measurement": "EC50", "setting": "H460 LCLC cells; Homo sapiens, NCI-H460, 72 h", "result": 76.9, "unit": "nM"}, {"measurement": "EC50", "setting": "HT29 Colon cells; Homo sapiens, HT-29, 72 h", "result": 60, "unit": "nM"}, {"measurement": "EC50", "setting": "A549 NSCLC cells; Homo sapiens, A549, 72 h", "result": 31.3, "unit": "nM"}, {"measurement": "EC50", "setting": "PANC1 Pancreas cells; Homo sapiens, PANC-1, 72 h", "result": 27.1, "unit": "nM"}, {"measurement": "EC50", "setting": "MB231 Breast cells; Homo sapiens, 72 h", "result": 109, "unit": "nM"}, {"measurement": "EC50", "setting": "FaDu Head/neck cells; Homo sapiens, FaDu, 72 h", "result": 75.5, "unit": "nM"}, {"measurement": "EC50", "setting": "H69 SCLC cells; Homo sapiens, 72 h", "result": 26.6, "unit": "nM"}, {"measurement": "EC50", "setting": "[2]; Homo sapiens, LOX, 72 h", "result": 71, "unit": "nM"}, {"measurement": "EC50", "setting": "H929 Myeloma cells; Homo sapiens, NCI-H929, 72 h", "result": 89.6, "unit": "nM"}]}]}
